Patent US11834435B2, “SSTR4 agonist salts” (Eli Lilly and Company, priority 2021, dated 2023)

Experiments:
hSSTR4 [1] = molecular target: T1, hSSTR4 (Homo sapiens (Human), UniProt P31391); assay: Radioligand competition binding, membrane homogenate; details: after being dissolved to free base forms
Experimental: In competition experiments, the test compound, which is not labeled, competes with the binding site of a labeled ligand. The displacement of the labeled ligand by the test compound leads to a decreased signal. For the binding experiments 200 μL of membrane homogenate from one of the following protein amounts is used: hSSTR1 (40 μg/well); hSSTR2 (25 μg/well); hSSTR3 (1.5 μg/well); hSSTR4 (0.5 μg/well); hSSTR5 (25 μg/well). The homogenate is incubated with 0.05 nM of radioligand ([3-125I-Tyr]-Somatostatin-(1-14)) in addition to increasing concentrations of a test compound or vehicle (100% binding) in a total volume of 250 μL using a Hepes buffer (10 mM, EDTA 1 mM, MgCl2 5 mM, pH 7.6, BSA 0.5%, Bacitracin 0.003%, DMSO 1%) for 180 min at RT. The incubation is terminated by filtration with ice cold NaCl 0.9% through polyethyleneimine treated (0.3%) grade GF/B glass fiber filters using a cell harvester. The protein-bound radioactivity is measured in a suitable reader. The non-specific binding is defined as radioactivity bound in the presence of 1 μM Somatostatin-14 during the incubation period. The analysis of the concentration-binding curves is performed by computer-assisted nonlinear least square curve fitting method using the model of one receptor binding site.

hSSTR4 [2] = molecular target: T1, hSSTR4; assay: cAMP assay (inhibition of forskolin-stimulated cAMP) in hSSTR4 expressing H4 cells; type: cell-based; details: after being dissolved to free base forms
Experimental: The activation of the SSTR4 receptor (G coupled) causes an inhibition of intracellular cAMP after stimulation with Forskolin, which can be quantifiable by use of a suitable assay Kit and an adequate plate reader. This technique is used to characterize pharmacological effects of the SSTR4 receptor agonists by use of hSSTR4 expressing H4 cells. The compound is dissolved and diluted in DMSO. The final test solution contains 1% DMSO. The cAMP standard (Lance™ cAMP 384 Kit; PerkinElmer, Cat #AD0264) is prepared in assay buffer (HBSS with 0.1% BSA, 5 mM HEPES, […], pH 7.4) containing 1% DMSO and the cAMP standard curve is included at least on one plate. Cells are centrifuged and suspended in assay buffer (incl. 1:100 diluted Alexa Fluor® antibody). For the assay 5 μL of a cell suspension (approximately 5000 cells/well)-incl. Alexa Fluor® antibody (diluted 1:100) are added into a 384 well MTP microtiter plate excepting one row or column (depending on the plate layout), which is reserved for the standard curve. Then 2 μL of compound sample is added as concentration response curve (e.g., le-5 M to 6e-10 M), usually in triplicates. Each assay contains incubations with vehicle controls instead of compound as controls for non-inhibited cAMP generation (100% CTL; ‘high values’) and incubations with 1 μM Somatostatin as controls for full inhibition and background (0% CTL; ‘low values’). After approximately 10-15 min incubation time 3 μL Forskolin (dissolved in DMSO, final conc. 15 μM) is added. Then the plates are shaken briefly and incubated for 60 min at RT. After 60 min 10 μL of the detection mix is added into all wells followed by an additional incubation period of 1 h. The plates are read in a suitable plate reader. The analysis of the data is based on the “ratio” of the time-resolved fluorescence measurements of donor and acceptor fluorophore (Ex: 320 nm; Em1: 665 nm; Em2: 615 nm; ratio 665/615). From this ratio, cAMP concentrations are calculated from standard curve and the EC50 is estimated by least square curve fit program. […]

T1 sequence (P31391 whole entry): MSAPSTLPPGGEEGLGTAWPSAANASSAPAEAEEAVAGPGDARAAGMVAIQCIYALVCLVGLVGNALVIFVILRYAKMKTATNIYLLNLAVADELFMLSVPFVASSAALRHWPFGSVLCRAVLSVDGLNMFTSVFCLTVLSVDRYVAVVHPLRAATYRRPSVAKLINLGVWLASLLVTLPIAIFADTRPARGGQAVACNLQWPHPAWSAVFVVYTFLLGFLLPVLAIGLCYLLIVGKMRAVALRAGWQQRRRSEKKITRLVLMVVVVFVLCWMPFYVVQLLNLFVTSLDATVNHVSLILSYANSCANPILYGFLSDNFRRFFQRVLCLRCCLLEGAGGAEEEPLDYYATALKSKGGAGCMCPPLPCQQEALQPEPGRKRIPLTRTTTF

Cc1cccnc1OCC(C)(C)NC(=O)[C@H]1[C@@H]2CNC[C@@H]21.O=C(O)C(O)C(O)C(=O)O [Example 1, (1S,5R)-(1α,5α,6α)-N-[1,1-dimethyl-2-[(3-methyl-2-pyridyl)oxy]ethyl]-3-azabicyclo[3.1.0]hexane-6-carboxamide L-tartrate sesquihydrate] was tested, and the “Selectivity of binding to SSTR4 over SSTR1, SSTR2, SSTR3 and SSTR5 (in words)” value (shortened to “Selectivity of binding to SSTR4”) (hSSTR4 [1]) was “selectively bind to SSTR4” and the “SSTR4 agonism (in words)” value (hSSTR4 [2]) was “agonists of SSTR4”.

In the case of Cc1cccnc1OCC(C)(C)NC(=O)[C@H]1[C@@H]2CNC[C@@H]21.O=C(O)CC(O)(CC(=O)O)C(=O)O [Example 2, (1S,5R)-(1α,5α,6α)-N-[1,1-dimethyl-2-[(3-methyl-2-pyridyl)oxy]ethyl]-3-azabicyclo[3.1.0]hexane-6-carboxamide citrate], the “Selectivity of binding to SSTR4” value (hSSTR4 [1]) is reported as “selectively bind to SSTR4” and the “SSTR4 agonism (in words)” value (hSSTR4 [2]) is reported as “agonists of SSTR4”.

For Cc1cccnc1OCC(C)(C)NC(=O)[C@H]1[C@@H]2CNC[C@@H]21.O=C(O)C[C@H](O)C(=O)O [Example 3, (1S,5R)-(1α,5α,6α)-N-[1,1-dimethyl-2-[(3-methyl-2-pyridyl)oxy]ethyl]-3-azabicyclo[3.1.0]hexane-6-carboxamide L-malate], the “Selectivity of binding to SSTR4” value (hSSTR4 [1]) was “selectively bind to SSTR4” and the “SSTR4 agonism (in words)” value (hSSTR4 [2]) was “agonists of SSTR4”.
